{"source": "paper PMC5951806", "about": "“Rapid labelling and covalent inhibition of intracellular native proteins using ligand-directed N-acyl-N-alkyl sulfonamide” (Nature Communications, 2018)", "assay_in_all_cases": "TMT LC-MSMS of 11-labelled proteins", "type_in_all_cases": "cell-based", "key": {"[1]": {"target": "Heat shock protein HSP 90-beta (HSP90AB1) (Homo sapiens, UniProt P08238)", "sequence (P08238 whole entry)": "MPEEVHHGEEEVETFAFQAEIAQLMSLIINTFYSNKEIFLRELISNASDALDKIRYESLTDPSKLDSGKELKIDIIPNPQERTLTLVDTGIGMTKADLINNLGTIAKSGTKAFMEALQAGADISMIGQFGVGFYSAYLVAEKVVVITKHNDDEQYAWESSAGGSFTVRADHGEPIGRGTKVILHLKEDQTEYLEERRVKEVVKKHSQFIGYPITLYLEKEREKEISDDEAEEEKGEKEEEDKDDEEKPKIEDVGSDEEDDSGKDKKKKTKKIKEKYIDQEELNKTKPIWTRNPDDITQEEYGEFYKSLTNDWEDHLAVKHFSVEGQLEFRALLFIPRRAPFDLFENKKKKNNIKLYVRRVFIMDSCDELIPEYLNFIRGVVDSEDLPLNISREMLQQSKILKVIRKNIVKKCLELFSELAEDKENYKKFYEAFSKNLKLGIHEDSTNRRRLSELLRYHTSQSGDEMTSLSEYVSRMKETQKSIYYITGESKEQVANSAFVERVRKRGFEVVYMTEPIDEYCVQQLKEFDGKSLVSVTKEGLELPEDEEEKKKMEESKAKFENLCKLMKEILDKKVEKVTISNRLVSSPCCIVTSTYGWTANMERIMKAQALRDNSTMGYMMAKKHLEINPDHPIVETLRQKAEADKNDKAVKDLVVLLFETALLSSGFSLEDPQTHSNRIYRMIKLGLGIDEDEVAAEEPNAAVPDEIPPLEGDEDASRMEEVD"}, "[2]": {"target": "Isoform 3 of L-lactate dehydrogenase A chain (LDHA) (Homo sapiens, UniProt P00338)"}, "[3]": {"target": "T1, citrate synthase, mitochondrial (CS) (Homo sapiens, UniProt O75390)", "T1 sequence (O75390 28-466)": "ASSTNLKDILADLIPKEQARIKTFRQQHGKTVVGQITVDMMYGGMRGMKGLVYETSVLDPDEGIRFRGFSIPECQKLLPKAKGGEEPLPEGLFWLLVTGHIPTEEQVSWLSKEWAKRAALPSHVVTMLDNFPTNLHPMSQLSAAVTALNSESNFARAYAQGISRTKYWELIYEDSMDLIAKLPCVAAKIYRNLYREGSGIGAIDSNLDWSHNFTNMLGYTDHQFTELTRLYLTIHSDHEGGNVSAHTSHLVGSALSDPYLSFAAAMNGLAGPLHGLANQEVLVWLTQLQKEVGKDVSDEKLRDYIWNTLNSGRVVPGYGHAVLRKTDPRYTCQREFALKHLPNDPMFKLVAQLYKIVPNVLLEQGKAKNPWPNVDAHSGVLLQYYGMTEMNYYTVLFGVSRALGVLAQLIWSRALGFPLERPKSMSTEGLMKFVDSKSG"}, "[4]": {"target": "puromycin-sensitive aminopeptidase (NPEPPS) (Homo sapiens, UniProt P55786)", "sequence (P55786 whole entry)": "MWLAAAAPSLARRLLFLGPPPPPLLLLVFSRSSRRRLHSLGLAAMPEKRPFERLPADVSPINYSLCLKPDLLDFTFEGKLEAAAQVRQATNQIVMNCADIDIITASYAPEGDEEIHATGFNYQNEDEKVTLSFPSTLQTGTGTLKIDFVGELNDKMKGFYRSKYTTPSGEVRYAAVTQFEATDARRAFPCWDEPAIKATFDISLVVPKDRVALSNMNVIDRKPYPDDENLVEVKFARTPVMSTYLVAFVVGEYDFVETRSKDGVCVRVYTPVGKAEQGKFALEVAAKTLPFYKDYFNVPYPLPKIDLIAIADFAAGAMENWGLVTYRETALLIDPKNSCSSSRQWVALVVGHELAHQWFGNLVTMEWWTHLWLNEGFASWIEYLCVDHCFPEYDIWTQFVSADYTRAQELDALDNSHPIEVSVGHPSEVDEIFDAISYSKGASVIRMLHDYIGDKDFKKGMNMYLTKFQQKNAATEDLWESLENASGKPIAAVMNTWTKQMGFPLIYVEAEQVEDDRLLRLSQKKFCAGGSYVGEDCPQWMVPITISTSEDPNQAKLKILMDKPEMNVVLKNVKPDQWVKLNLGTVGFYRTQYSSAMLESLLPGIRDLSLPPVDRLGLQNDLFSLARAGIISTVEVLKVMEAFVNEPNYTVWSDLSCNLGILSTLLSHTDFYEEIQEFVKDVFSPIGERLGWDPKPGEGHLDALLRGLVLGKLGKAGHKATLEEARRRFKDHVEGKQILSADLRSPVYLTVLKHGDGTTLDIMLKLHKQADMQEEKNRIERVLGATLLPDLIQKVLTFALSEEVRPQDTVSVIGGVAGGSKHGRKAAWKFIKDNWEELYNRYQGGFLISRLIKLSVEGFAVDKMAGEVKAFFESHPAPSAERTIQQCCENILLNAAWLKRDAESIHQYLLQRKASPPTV"}, "[5]": {"conditions": "sheet Exp1, SKBR3 cells, 11 0.5 µM 3 h vs DMSO"}, "[6]": {"conditions": "sheet Exp1, SKBR3 cells, 11 0.5 µM 3 h vs with PU-H71 10 µM"}, "[7]": {"conditions": "sheet Merged, SKBR3 cells, 11 0.5 µM 3 h vs DMSO"}, "[8]": {"conditions": "sheet Merged, SKBR3 cells, 11 0.5 µM 3 h vs with PU-H71 10 µM"}}, "note": "Values joined by “and” are separate entries in the source; they are usually repeats but may differ in a detail not shown here. Equal entries are not always repeated.", "data": [{"smiles": "CC(=O)Oc1ccc2c(c1)Oc1cc(OC(C)=O)ccc1C21OC(=O)c2cc(C(=O)NCCOCCOCCNC(=O)CCCC(=O)N(CC#N)S(=O)(=O)c3ccc(C(=O)NCCCn4c(Sc5cc6c(cc5I)OCO6)nc5c(N)ncnc54)cc3)ccc21", "note": "[compound 11]", "values": [{"measurement": "Abundance Ratio: (11) / (11 with PU-H71)", "setting": "[1]; Exp3, HSP90AB1", "value": 3.363}, {"measurement": "Abundance Ratio: (11) / (DMSO)", "setting": "[1]; Exp3, HSP90AB1", "value": 10.531}, {"measurement": "Abundances (Grouped): 11", "setting": "[1]; Exp3, HSP90AB1", "value": 3418.4}, {"measurement": "Abundances (Grouped): 11 with PU-H71", "setting": "[1]; Exp3, HSP90AB1", "value": 1016.5}, {"measurement": "Abundance Ratio: (11) / (DMSO)", "setting": "[1]; [5]", "value": 8.2}, {"measurement": "Abundance Ratio: (11) / (11 with PU-H71)", "setting": "[1]; [6]", "value": 3.253}, {"measurement": "Abundance Ratio: (11) / (11 with PU-H71)", "setting": "[1]; sheet Exp2, HSP90AB1", "value": 3.262}, {"measurement": "Abundance Ratio: (11) / (DMSO)", "setting": "[1]; sheet Exp2, HSP90AB1", "value": 9.509}, {"measurement": "Abundances (Grouped): 11", "setting": "[1]; sheet Exp2, HSP90AB1", "value": 4464.4}, {"measurement": "Abundances (Grouped): 11 with PU-H71", "setting": "[1]; sheet Exp2, HSP90AB1", "value": 1368.7}, {"measurement": "Abundance Ratio: (11) / (DMSO)", "setting": "[1]; [7]", "value": "9.3 and 9.344"}, {"measurement": "Abundance Ratio: (11) / (11 with PU-H71)", "setting": "[1]; [8]", "value": 3.227}, {"measurement": "Abundance Ratio: (11) / (11 with PU-H71)", "setting": "[2]; Exp3, LDHA", "value": 0.709}, {"measurement": "Abundance Ratio: (11) / (DMSO)", "setting": "[2]; Exp3, LDHA", "value": 4.426}, {"measurement": "Abundances (Grouped): 11", "setting": "[2]; Exp3, LDHA", "value": 517.9}, {"measurement": "Abundances (Grouped): 11 with PU-H71", "setting": "[2]; Exp3, LDHA", "value": 730.3}, {"measurement": "Abundance Ratio: (11) / (DMSO)", "setting": "[2]; [5]", "value": 4.186}, {"measurement": "Abundance Ratio: (11) / (11 with PU-H71)", "setting": "[2]; [6]", "value": 0.705}, {"measurement": "Abundance Ratio: (11) / (11 with PU-H71)", "setting": "[2]; sheet Exp2, LDHA", "value": 0.702}, {"measurement": "Abundance Ratio: (11) / (DMSO)", "setting": "[2]; sheet Exp2, LDHA", "value": 3.79}, {"measurement": "Abundances (Grouped): 11", "setting": "[2]; sheet Exp2, LDHA", "value": 554.9}, {"measurement": "Abundances (Grouped): 11 with PU-H71", "setting": "[2]; sheet Exp2, LDHA", "value": 790.3}, {"measurement": "Abundance Ratio: (11) / (DMSO)", "setting": "[2]; [7]", "value": 4.186}, {"measurement": "Abundance Ratio: (11) / (11 with PU-H71)", "setting": "[2]; [8]", "value": 0.705}, {"measurement": "Abundance Ratio: (11) / (11 with PU-H71)", "setting": "[3]; sheet Exp2, CS", "value": 0.812}, {"measurement": "Abundance Ratio: (11) / (DMSO)", "setting": "[3]; sheet Exp2, CS", "value": 1.581}, {"measurement": "Abundances (Grouped): 11", "setting": "[3]; sheet Exp2, CS", "value": 26.4}, {"measurement": "Abundances (Grouped): 11 with PU-H71", "setting": "[3]; sheet Exp2, CS, with PU-H71", "value": 32.5}, {"measurement": "Abundance Ratio: (11) / (DMSO)", "setting": "[3]; [7]", "value": 1.555}, {"measurement": "Abundance Ratio: (11) / (11 with PU-H71)", "setting": "[3]; [8]", "value": 0.796}, {"measurement": "Abundance Ratio: (11) / (11 with PU-H71)", "setting": "[4]; Exp3, NPEPPS", "value": 0.586}, {"measurement": "Abundance Ratio: (11) / (DMSO)", "setting": "[4]; Exp3, NPEPPS", "value": 3.067}, {"measurement": "Abundances (Grouped): 11", "setting": "[4]; Exp3, NPEPPS", "value": 616.5}, {"measurement": "Abundances (Grouped): 11 with PU-H71", "setting": "[4]; Exp3, NPEPPS", "value": 1052.4}, {"measurement": "Abundance Ratio: (11) / (DMSO)", "setting": "[4]; [5]", "value": 3.569}, {"measurement": "Abundance Ratio: (11) / (11 with PU-H71)", "setting": "[4]; [6]", "value": 0.575}, {"measurement": "Abundance Ratio: (11) / (11 with PU-H71)", "setting": "[4]; sheet Exp2, NPEPPS", "value": 0.592}, {"measurement": "Abundance Ratio: (11) / (DMSO)", "setting": "[4]; sheet Exp2, NPEPPS", "value": 3.192}, {"measurement": "Abundances (Grouped): 11", "setting": "[4]; sheet Exp2, NPEPPS", "value": 968.9}, {"measurement": "Abundances (Grouped): 11 with PU-H71", "setting": "[4]; sheet Exp2, NPEPPS", "value": 1636.1}, {"measurement": "Abundance Ratio: (11) / (DMSO)", "setting": "[4]; [7]", "value": 3.569}, {"measurement": "Abundance Ratio: (11) / (11 with PU-H71)", "setting": "[4]; [8]", "value": 0.575}]}]}
